Columns and labels:
Format in all cases: in vivo
Digitaria ciliaris [1] = assay: Test Example 4: herbicidal effect by soil treatment (symbol F); details: application herbicide amount 320 g/ha
Outline: (§1)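 Seeds were sown in sterilized diluvial soil, covered with about 1.5 cm of soil, and the soil surface was sprayed with a water-diluted emulsion of the compound at a predetermined rate. Plants grew in a greenhouse at 25° C. to 30° C.; effects were scored visually 3 weeks after application.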

Setaria viridis [2] = assay: Test Example 4: herbicidal effect by soil treatment (symbol G); details: application herbicide amount 320 g/ha
Outline: as §1

Leptochloa chinensis = assay: Test Example 3: herbicidal effect by foliage application, Wagner pot (symbol D); details: application herbicide amount 320 g/ha
Outline: (§2)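 The compound, formulated as an emulsion and diluted with water to a predetermined rate, is applied uniformly to leaves of two-week-old seedlings growing in submerged alluvial soil at 25–30 °C. Rice is included. Each plant is assessed 3 weeks later using defined criteria.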

Stellaria media = assay: Test Example 5: herbicidal effect by foliage application, plastic box (symbol P); details: 320 g/ha, 3 weeks after application
Outline: (§3)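 Sowing in sterilized diluvial soil, 14 days' greenhouse growth at 25° C. to 30° C., then uniform small-sprayer foliar application of aqueous emulsion dilution; plants scored three weeks afterwards.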

Veronica persica = assay: Test Example 4: herbicidal effect by soil treatment (symbol R); details: application herbicide amount 320 g/ha
Outline: as §1

Avena fatua = assay: Test Example 5: herbicidal effect by foliage application, plastic box (symbol I); details: 320 g/ha, 3 weeks after application
Outline: as §3

Monochoria vaginalis = assay: Test Example 2: herbicidal activity, application during weed generation in submerged conditions (symbol C); details: Table 23; application herbicide amount 320 g/ha; grade 0-5 by criteria of Test Example 1
Outline: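 Treatment timing was the one- to two-leaf stage, with diluted emulsifiable compound dropped onto the paddy water (depth 4 cm) over alluvial soil. All three species grew from a mixed sowing in a 25° C. to 30° C. greenhouse. Injury was judged by eye 3 weeks on.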

[3] = tested on: Echinochloa oryzacola Vasing.; assay: Test Example 1: herbicidal activity, application before weed generation in submerged conditions (symbol A); details: application herbicide amount 320 g/ha
Outline: (§4)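 Flooded alluvial soil (4 cm water) was mixed-sown with the three weed species, and 2.5-leaf rice seedlings were transplanted. On sowing day, a water-diluted emulsion at a predetermined rate was applied to the water surface. After 3 weeks in a 25–30 °C greenhouse, effect was scored 0–5.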

Scirpus juncoides = assay: Test Example 1: herbicidal activity, application before weed generation in submerged conditions (symbol B); details: application herbicide amount 320 g/ha
Outline: as §4

beet = assay: Test Example 4: effect on crop by soil treatment (symbol f); details: application herbicide amount 320 g/ha
Outline: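 Seeds were sown in spots on sterilized diluvial soil in a plastic box and covered with about 1.5 cm of soil. Plants were then grown in a greenhouse at 25° C. to 30° C.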

Cyperus difformis = assay: Test Example 3: herbicidal effect by foliage application, Wagner pot (symbol E); details: application herbicide amount 320 g/ha
Outline: as §2

Digitaria ciliaris [4] = assay: Test Example 5: herbicidal effect by foliage application, plastic box (symbol F); details: 320 g/ha, 3 weeks after application
Outline: as §3

Setaria viridis [5] = assay: Test Example 5: herbicidal effect by foliage application, plastic box (symbol G); details: 320 g/ha, 3 weeks after application
Outline: as §3

[6] = tested on: Echinochloa crus-galli var. crus-galli; assay: Test Example 4: herbicidal effect by soil treatment (symbol H); details: application herbicide amount 320 g/ha
Outline: as §1

CON=C(C)CC1CC(O)=C(c2c(C)cc(OCc3ccncc3)cc2C)C1=O (mixture of isomers) [6-053]
F: Digitaria ciliaris, herbicidal effect grade (Digitaria ciliaris [1]): 4 (Herbicidal ratio of 70% or higher and lower than 90%)
G: Setaria viridis, herbicidal effect grade (Setaria viridis [2]): 3 (Herbicidal ratio of 40% or higher and lower than 70%)
herbicidal effect on D (Leptochloa chinensis), grade 0-5 (Leptochloa chinensis): 5 (Herbicidal ratio of 90% or more (almost completely withered))
P: Stellaria media, herbicidal effect grade (Stellaria media): 0 (Herbicidal ratio of 5% or lower (almost no effect))
R: Veronica persica, herbicidal effect grade (Veronica persica): 0 (Herbicidal ratio of 5% or lower (almost no effect))
I: Avena fatua, herbicidal effect grade (Avena fatua): 3 (Herbicidal ratio of 40% or higher and lower than 70%)
Herbicidal effect grade, C: Monochoria vaginalis (Monochoria vaginalis): 2 (Herbicidal ratio of 20% or higher and lower than 40%)
Herbicidal effect grade, A: Echinochloa oryzacola Vasing. [3]: 4 (Herbicidal ratio of 70% or higher and lower than 90%)
Herbicidal effect grade, B: Scirpus juncoides (Scirpus juncoides): 2 (Herbicidal ratio of 20% or higher and lower than 40%)
f: beet, effect on crop grade (beet): 0 (Herbicidal ratio of 5% or lower (almost no effect))
herbicidal effect on E, grade 0-5 (Cyperus difformis): 3 (Herbicidal ratio of 40% or higher and lower than 70%)
F: Digitaria ciliaris, herbicidal effect grade (Digitaria ciliaris [4]): 5 (Herbicidal ratio of 90% or more (almost completely withered))
G: Setaria viridis, herbicidal effect grade (Setaria viridis [5]): 5 (Herbicidal ratio of 90% or more (almost completely withered))
H: Echinochloa crus-galli var. crus-galli, herbicidal effect grade [6]: 2 (Herbicidal ratio of 20% or higher and lower than 40%)

CON=C(C)CC1CC(O)=C(c2c(C)cc(-c3ccc(OC(F)(F)F)cc3)cc2C)C1=O (mixture of isomers) [6-056]
F: Digitaria ciliaris, herbicidal effect grade (Digitaria ciliaris [1]): 0 (Herbicidal ratio of 5% or lower (almost no effect))
G: Setaria viridis, herbicidal effect grade (Setaria viridis [2]): 2 (Herbicidal ratio of 20% or higher and lower than 40%)
herbicidal effect on D (Leptochloa chinensis), grade 0-5 (Leptochloa chinensis): 5 (Herbicidal ratio of 90% or more (almost completely withered))
P: Stellaria media, herbicidal effect (criteria of Test Example 1) (Stellaria media): 0 (Herbicidal ratio of 5% or lower (almost no effect))
R: Veronica persica, herbicidal effect grade (Veronica persica): 0 (Herbicidal ratio of 5% or lower (almost no effect))
I: Avena fatua, herbicidal effect (criteria of Test Example 1) (Avena fatua): 3 (Herbicidal ratio of 40% or higher and lower than 70%)
Herbicidal effect grade, C: Monochoria vaginalis (Monochoria vaginalis): 0 (Herbicidal ratio of 5% or lower (almost no effect))
Herbicidal effect grade, A: Echinochloa oryzacola Vasing. [3]: 3 (Herbicidal ratio of 40% or higher and lower than 70%)
Herbicidal effect grade, B: Scirpus juncoides (Scirpus juncoides): 0 (Herbicidal ratio of 5% or lower (almost no effect))
f: beet, effect on crop grade (beet): 0 (Herbicidal ratio of 5% or lower (almost no effect))
herbicidal effect on E, grade 0-5 (Cyperus difformis): 3 (Herbicidal ratio of 40% or higher and lower than 70%)
F: Digitaria ciliaris, herbicidal effect (criteria of Test Example 1) (Digitaria ciliaris [4]): 5 (Herbicidal ratio of 90% or more (almost completely withered))
G: Setaria viridis, herbicidal effect (criteria of Test Example 1) (Setaria viridis [5]): 5 (Herbicidal ratio of 90% or more (almost completely withered))
H: Echinochloa crus-galli var. crus-galli, herbicidal effect grade [6]: 0 (Herbicidal ratio of 5% or lower (almost no effect))

CON=C(C)CC1CC(O)=C(c2c(C)cc(-c3ncccn3)cc2C)C1=O (mixture of isomers) [6-057]
F: Digitaria ciliaris, herbicidal effect grade (Digitaria ciliaris [1]): 5 (Herbicidal ratio of 90% or more (almost completely withered))
G: Setaria viridis, herbicidal effect grade (Setaria viridis [2]): 5 (Herbicidal ratio of 90% or more (almost completely withered))
herbicidal effect on D (Leptochloa chinensis), grade 0-5 (Leptochloa chinensis): 5 (Herbicidal ratio of 90% or more (almost completely withered))
P: Stellaria media, herbicidal effect (criteria of Test Example 1) (Stellaria media): 4 (Herbicidal ratio of 70% or higher and lower than 90%)
R: Veronica persica, herbicidal effect grade (Veronica persica): 0 (Herbicidal ratio of 5% or lower (almost no effect))
I: Avena fatua, herbicidal effect (criteria of Test Example 1) (Avena fatua): 5 (Herbicidal ratio of 90% or more (almost completely withered))
Herbicidal effect grade, C: Monochoria vaginalis (Monochoria vaginalis): 0 (Herbicidal ratio of 5% or lower (almost no effect))
Herbicidal effect grade, A: Echinochloa oryzacola Vasing. [3]: 3 (Herbicidal ratio of 40% or higher and lower than 70%)
Herbicidal effect grade, B: Scirpus juncoides (Scirpus juncoides): 3 (Herbicidal ratio of 40% or higher and lower than 70%)
f: beet, effect on crop grade (beet): 0 (Herbicidal ratio of 5% or lower (almost no effect))
herbicidal effect on E, grade 0-5 (Cyperus difformis): 5 (Herbicidal ratio of 90% or more (almost completely withered))
F: Digitaria ciliaris, herbicidal effect (criteria of Test Example 1) (Digitaria ciliaris [4]): 5 (Herbicidal ratio of 90% or more (almost completely withered))
G: Setaria viridis, herbicidal effect (criteria of Test Example 1) (Setaria viridis [5]): 5 (Herbicidal ratio of 90% or more (almost completely withered))
H: Echinochloa crus-galli var. crus-galli, herbicidal effect grade [6]: 5 (Herbicidal ratio of 90% or more (almost completely withered))

CON=C(C)CC1CC(O)=C(c2c(C)cc(-c3ccc(F)cc3)cc2C)C1=O (mixture of isomers) [6-058]
F: Digitaria ciliaris, herbicidal effect grade (Digitaria ciliaris [1]): 5 (Herbicidal ratio of 90% or more (almost completely withered))
G: Setaria viridis, herbicidal effect grade (Setaria viridis [2]): 5 (Herbicidal ratio of 90% or more (almost completely withered))
herbicidal effect on D (Leptochloa chinensis), grade 0-5 (Leptochloa chinensis): 5 (Herbicidal ratio of 90% or more (almost completely withered))
P: Stellaria media, herbicidal effect (criteria of Test Example 1) (Stellaria media): 5 (Herbicidal ratio of 90% or more (almost completely withered))
R: Veronica persica, herbicidal effect grade (Veronica persica): 5 (Herbicidal ratio of 90% or more (almost completely withered))
I: Avena fatua, herbicidal effect (criteria of Test Example 1) (Avena fatua): 5 (Herbicidal ratio of 90% or more (almost completely withered))
Herbicidal effect grade, C: Monochoria vaginalis (Monochoria vaginalis): 5 (Herbicidal ratio of 90% or more (almost completely withered))
Herbicidal effect grade, A: Echinochloa oryzacola Vasing. [3]: 5 (Herbicidal ratio of 90% or more (almost completely withered))
Herbicidal effect grade, B: Scirpus juncoides (Scirpus juncoides): 5 (Herbicidal ratio of 90% or more (almost completely withered))
f: beet, effect on crop grade (beet): 4 (Herbicidal ratio of 70% or higher and lower than 90%)
herbicidal effect on E, grade 0-5 (Cyperus difformis): 5 (Herbicidal ratio of 90% or more (almost completely withered))
F: Digitaria ciliaris, herbicidal effect (criteria of Test Example 1) (Digitaria ciliaris [4]): 5 (Herbicidal ratio of 90% or more (almost completely withered))
G: Setaria viridis, herbicidal effect (criteria of Test Example 1) (Setaria viridis [5]): 5 (Herbicidal ratio of 90% or more (almost completely withered))
H: Echinochloa crus-galli var. crus-galli, herbicidal effect grade [6]: 5 (Herbicidal ratio of 90% or more (almost completely withered))

CON=C(C)CC1CC(OC(=O)N2CCOCC2)=C(c2c(C)cc(-c3ccc(F)cc3)cc2C)C1=O (mixture of isomers) [6-059]
F: Digitaria ciliaris, herbicidal effect grade (Digitaria ciliaris [1]): 5 (Herbicidal ratio of 90% or more (almost completely withered))
G: Setaria viridis, herbicidal effect grade (Setaria viridis [2]): 5 (Herbicidal ratio of 90% or more (almost completely withered))
herbicidal effect on D (Leptochloa chinensis), grade 0-5 (Leptochloa chinensis): 5 (Herbicidal ratio of 90% or more (almost completely withered))
P: Stellaria media, herbicidal effect (criteria of Test Example 1) (Stellaria media): 4 (Herbicidal ratio of 70% or higher and lower than 90%)
R: Veronica persica, herbicidal effect grade (Veronica persica): 3 (Herbicidal ratio of 40% or higher and lower than 70%)
I: Avena fatua, herbicidal effect (criteria of Test Example 1) (Avena fatua): 5 (Herbicidal ratio of 90% or more (almost completely withered))
Herbicidal effect grade, C: Monochoria vaginalis (Monochoria vaginalis): 4 (Herbicidal ratio of 70% or higher and lower than 90%)
Herbicidal effect grade, A: Echinochloa oryzacola Vasing. [3]: 5 (Herbicidal ratio of 90% or more (almost completely withered))
Herbicidal effect grade, B: Scirpus juncoides (Scirpus juncoides): 5 (Herbicidal ratio of 90% or more (almost completely withered))
f: beet, effect on crop grade (beet): 0 (Herbicidal ratio of 5% or lower (almost no effect))
herbicidal effect on E, grade 0-5 (Cyperus difformis): 5 (Herbicidal ratio of 90% or more (almost completely withered))
F: Digitaria ciliaris, herbicidal effect (criteria of Test Example 1) (Digitaria ciliaris [4]): 5 (Herbicidal ratio of 90% or more (almost completely withered))
G: Setaria viridis, herbicidal effect (criteria of Test Example 1) (Setaria viridis [5]): 5 (Herbicidal ratio of 90% or more (almost completely withered))
H: Echinochloa crus-galli var. crus-galli, herbicidal effect grade [6]: 2 (Herbicidal ratio of 20% or higher and lower than 40%)

From patent publication US11000033B2, “Ketone or oxime compound, and herbicide” (NISSAN CHEMICAL CORPORATION, priority 2014, dated 2021)
